Results on 19 compounds are retold here after patent US4220795A, “Cyclobutyl substituted derivatives of prostaglandin analogs” (Miles Laboratories, Inc., priority 1978, dated 1980).

One test relates to femoral blood flow. Nature of the test: Effects on Femoral Blood Flow in the Dog (Test C). The test is classed as in vivo, dog (mongrel). The settings on record: anesthetized dog, intraarterial 0.001 to 10 mcg. The method, then:
C. Evaluation of the Effects of Prostaglandin Analogs III on the Femoral Blood Flow in the Dog
The peripheral vasodilator or constrictor effects of test compounds were determined in mongrel dogs of either sex, weighing between 10 and 20 kg anesthestized intravenously with 35 mg/kg of sodium pentobarbital. An external iliac artery was dissected immediately above the femoral arch for a length of approximately 5 cm and a previously calibrated, non-connulating electromagnetic flowmeter sensor with a lumen between 2.5 and 3.5 mm was placed snugly around the vessel. Cannulas were placed in a branch of the artery arising distally to the location of the flowmeter sensor for intraarterial drug administrations, in the contralateral femoral artery for systemic blood pressure recordings and in the trachea for artificial respiration with room air. Femoral blood flow and systemic blood pressure were continuously recorded with an electromagnetic flowmeter and pressure transducer, respectively.
After an adequate control period, test compounds were injected intraarterially at one log-spaced doses ranging from 0.001 to 10 mcg., in a volume of 0.5 ml and at 5 to 10 min intervals. Maximum changes in bloodflow, as well as any variations in blood pressure, were tabulated for each dose in absolute values (ml/min and mmHg). The calculations were made taking as control values those existing immediately before administration of each dose. The direction of the observed change (+ for increase and - for decrease) was also noted. The dose changing bloodflow by 100 ml/min (ED100 ml/min) was calculated graphically and was used for scoring activity as follows: […]

The next test has as its system blood pressure. Kind of test: Effects on Blood Pressure and Heart Rate in the Anesthetized Cat (Test D). The settings on record: Felis catus, iv, i.v. 0.01 to 10.0 mcg/kg, scored on hypotension, read-out: Activity value, Test D: Normal Feline Blood Pressure and Heart Rate (ED50 mmHg). It counts as in vivo. As for the experimental part: D. Evaluation of the Effects of Prostaglandin Analogs III on Blood Pressure and Heart Rate in the Anesthetized Cat
The acute effects of test compounds on blood pressure and heart rate were determined in cats of either sex anesthetized with a mixture of pentobarbital sodium (35 mg/kg, i.v.) and barbital sodium (100 mg/kg, i.v.). Cannulas were placed in the trachea to allow adequate spontaneous ventilation, in a femoral artery for blood pressure recording with a strain gage transducer, and in a saphenous vein for drug administration. Heart rate was recorded by means of a cardiotachometer driven by the R wave of the electrocardiogram. After a period of 10 min of stable recordings of blood pressure and heart rate, the test compound was administered intravenously at doses increasing from 0.01 to 10.0 mcg/kg, spaced one log and injected at 10 min intervals. All doses were injected in a volume of 0.1 ml/kg. Modifications of blood pressure and heart rate induced by the test compound were expressed both in absolute units (mmHg and beats/min) and as percent of values recorded immediately before administration of each dose. Biphasic responses were tabulated in the order in which they occur. The direction of the observed changes was also noted (+ for increase and - for decrease).
Activity of compounds in this test was judged only on the basis of the degree of hypotension observed. Thus, the ED50 mmHg (dose decreasing blood pressure by 50 mmHg) was calculated graphically and the compound scored according to the following scale: […]

In a further test the test system is rat uterus. Kind of test: Effects on the Rat Uterus (Test F). The settings on record: for EC50: read-out: Activity value, Test F: Effects on Rat Uterus (ED50, response of 50% that of carbachol). As for the experimental part:
F. Evaluation of the Effects of Prostaglandin Analogs III on the Rat Uterus
The uterine stimulant effect of test compounds is determined in segments of uterus obtained from rats (140-160 g) pretreated subcutaneously with 1 mg/kg of diethylstibesterol 18 hr before the experiment. The tissues are placed in 10 ml chambers filled with de-Jalon solution at 29° C. and bubbled with 95% O2 and 5% CO2, and prepared for isometric recording with force displacement transducers. Preparations are stretched to an initial tension of 1 g and are left undisturbed for 30 min, after which two responses to 1 mcg/ml of carbachol added to the bath at a 10 min interval, are obtained (the value of the second response is recorded). Responses to increasing concentrations of the test compound (0.001 to 10.0 mcg/ml with one log intervals) are then recorded every 10 min. Preparations are washed four times after each response. All doses of drugs are administered in a 0.1 ml volume. Since it has been observed that the magnitude of the second response to carbachol, which is approximately 10% greater than the first, is close to the maximal response of the tissue, such value is taken as a measure of the sensititity of the particular segment. Responses to each concentration of the test compound are expressed in terms of percentage of the second response to carbachol and the ED50 (dose producing a response of 50% that of carbachol) is calculated graphically. Activity is scored according to the following scale: […]

Test [1] relates to blood pressure (hypertensive rat). Nature of the test: Effects on Blood Pressure in the Hypertensive Rat (Test E). Set-up: key: 0: Not significant at any time interval; 1: Significant at one time interval; 2: Significant at two time intervals; 3: Significant at three time intervals; 4: Significant at all four intervals. The settings on record: 1 mg/kg intraperitoneal, 2, 4, 6 and 8 hr. The test is classed as in vivo. The method, then: E. Evaluation of the Effects of Prostaglandin Analogs III on Blood Pressure in the Hypertensive Rat
The acute antihypertensive activity of test compounds is determined in rats made hypertensive by the procedure of Grollman (A. Proc. Soc. Exper. Biol. Med., 57:102, [1944]). Female rats weighing between 60 and 100 g are anesthetized with ether, the right kidney approached through a flank retroperitoneal incision, decapsulated and tied with a figure-of-eight ligature. The animals are left to recover and two weeks later are again anesthetized and the contralateral kidney removed. Four weeks after the second operation the rats are subjected to indirect blood pressure measurements and those showing systolic pressure values greater than 160 mmHg are selected for drug testing.
Blood pressure is measured in the tail with an inflatable occluding cuff placed at the base of the extremity and a pulse detector located distally. The cuff is inflated to approximately 300 mmHg and is slowly deflated until pulsations appear, indicating the level of systolic pressure; diastolic pressure is not recorded by this procedure. All measurements are carried out in unanesthetized, unsedated animals maintained in a warm environment during the recording procedure and for at least 6 hr before. In all cases, three pressure readings are obtained in succession and mean values are calculated thereof.
Experiments are carried out in groups of five hypertensive rats in which systolic pressure is determined immediately before and 2, 4, 6 and 8 hr after the intraperitoneal administration of the test compound at a dose of 1 mg/kg. Drugs are diluted from stock solutions with phosphate buffer (Lee et al., Prostaglandins 3:29 [1973]), so as to inject this quantity in a volume of 1 ml/kg. Changes from control blood pressure values are calculated for each interval both in mmHg and in per-cent, and evaluated for significance by means of Wilcoxon's signed rank test (Wilcoxon and Wilcox, Some rapid approximate statistical procedures, Lederle Laboratories, Pearl River [1964]).

Where [2] appears, read: rat uterus segments, 0.001 to 10.0 mcg/ml, 29° C.

Consider `CCC1CC([C@H](O)/C=C/[C@H]2C=CC(=O)[C@@H]2CCCCCCCOC(C)=O)C1` (stereo partly drawn) [TR-4565, 1-Acetoxy-15S-hydroxy-16,18-methanoprosta-10,13E-dien-9-one], for which the “Activity value, Test C: Increase in Canidae Femoral Blood Flow (ED100 ml/min)” value (“Activity value, Test C: Increase” for short) with femoral blood flow is recorded as 1 (1.0.-10.0). For the same compound, in the test on blood pressure, the ED (50 mmHg) is more than 0.0101 mg/kg. In addition, the EC50 in the test with rat uterus (setting [2]) is more than 10 µg/mL.

As to `CCCCC1([C@H](O)/C=C/[C@H]2[C@H](O)CC(=O)[C@@H]2CCCCCCC(=O)OC)CCC1` [TR-4692, Methyl 11α,15R-dihydroxy-9-oxo-16,16-propanoprost-13E-en-1-oate], the “Activity value, Test E: Effects on Blood Pressure in Hypertensive Rat (blood pressure decrease)” value in test [1] turned out to be 0. The ED (50 mmHg) in the test on blood pressure is 0.00101 to 0.01 mg/kg. Moreover, the EC50 in the test with rat uterus (setting [2]) is more than 10 µg/mL.

As to `COC(=O)CCCCCC[C@H]1C(=O)C[C@@H](O)[C@@H]1/C=C/[C@H](O)C1CC(CC2CCC2)C1` (stereo partly drawn) [TR-4796, Methyl 11α,15R-dihydroxy-16,18-methano-20,20-propano-9-oxoprost-13E-en-1-oate], the EC50 in the test with rat uterus (setting [2]) was more than 10 µg/mL.

Turning to `COC(=O)CCCCCC[C@H]1C(=O)C[C@@H](O)[C@@H]1/C=C/[C@@H](O)C1CC(CC2CCC2)C1` (stereo partly drawn) [TR-4797, Methyl 11α,15S-dihydroxy-16,19-methano-20,20-propano-9-oxoprost-13E-en-1-oate], the EC50 in the test on rat uterus (setting [2]) is more than 10 µg/mL.

On to `CC1([C@@H](O)/C=C/[C@H]2[C@H](O)CC(=O)[C@@H]2CCCCCCCO)CCC1` [TR-4674, 16,19-Cyclo-16-methyl-20-nor-1,11α,15S-trihydroxyprost-13E-en-9-one], for which, in test [1], the “Activity value, Test E: Effects on Blood Pressure in Hypertensive Rat (blood pressure decrease)” value is listed as 0. In addition, the ED (50 mmHg) with blood pressure is more than 0.0101 mg/kg. In addition, in the test with rat uterus (setting [2]), the EC50 was more than 10 µg/mL.

In the case of `COC(=O)CCCCCC[C@H]1C(=O)C=C[C@@H]1/C=C/[C@@H](O)C1(C)CCC1` [TR-4683, Methyl 16,19-cyclo-15R-hydroxy-16-methyl-20-nor-9-oxoprosta-10,13E-dien-1-oate], in the test on rat uterus (setting [2]), the EC50 is more than 10 µg/mL.

Take `O=C1C[C@@H](O)[C@H](/C=C/[C@@H](O)C2CC(C3CCC3)C2)[C@H]1CCCCCCCO` (stereo partly drawn) [TR-4880, 1,11α,15S-Trihydroxy-16,18-methano-19,20-ethanoprost-13E-en-9-one]: the EC50 in the test with rat uterus (setting [2]) is more than 10 µg/mL.

Regarding `O=C1C[C@@H](O)[C@H](/C=C/[C@H](O)C2CC(CC3CCC3)C2)[C@H]1CCCCCCCO` (stereo partly drawn) [TR-4832, 1,11α,15R-Trihydroxy-16,18-methano-20,20-propanoprost-13E-en-9-one], the EC50 with rat uterus (setting [2]) was more than 10 µg/mL.

Regarding `CCC1CC(C)([C@@H](O)/C=C/[C@H]2[C@H](O)CC(=O)[C@@H]2CCCCCCCO)C1` (stereo partly drawn) [TR-4689, 16,18-Methano-16-methyl-1,11α,15S-trihydroxyprost-13E-en-9-one], in the test on femoral blood flow, the “Activity value, Test C: Increase” value is 0 (>10.0). The ED (50 mmHg) with blood pressure was more than 0.0101 mg/kg. Also, the EC50 with rat uterus (setting [2]) was more than 10 µg/mL.

`C[N+](C)(C)CCOC(N)=O` [carbachol, reference compound]: in the test with rat uterus (carbachol 1 mcg/ml, rat uterus, 10 min interval), the “magnitude of the second response greater than the first” value is given as “approximately 10%”.

Regarding `CCC1CC(C)([C@H](O)/C=C/[C@H]2[C@H](O)CC(=O)[C@@H]2CCCCCCC(=O)OC)C1` (stereo partly drawn) [TR-4681, Methyl 11α,15R-dihydroxy-16,18-methano-16-methyl-9-oxoprost-13E-en-1-oate], in the test with femoral blood flow, the “Activity value, Test C: Increase” value is reported as 2 (0.11-1.0). Also, the ED (50 mmHg) in the test on blood pressure lay within 0.00101 to 0.01 mg/kg. In the test with rat uterus (setting [2]), the EC50 was more than 10 µg/mL.

Take `CCC1CC([C@@H](O)/C=C/[C@H]2[C@H](O)CC(=O)[C@@H]2CCCCCCO)C1` (relative stereo) [TR-4675, (±)16,18-Methano-1-nor-2,11α,15R-trihydroxyprost-13E-en-9-one]: the “Activity value, Test C: Increase” value in the test on femoral blood flow is reported as 0 (>10.0). In the test on blood pressure, the ED (50 mmHg) was more than 0.0101 mg/kg. Further, in the test on rat uterus (setting [2]), the EC50 is more than 10 µg/mL.

Turning to `CCC1CC(C(O)/C=C/[C@H]2C=CC(=O)[C@@H]2CCCCCCC(=O)OC)C1` (stereo partly shown) [TR-4280, Methyl 15RS-hydroxy-16,18-methano-9-oxoprosta-10,13E-dien-1-oate], the EC50 in the test on rat uterus (setting [2]) was more than 10 µg/mL.

For the compound `CCC1CC(C)(C(O)/C=C/[C@H]2C=CC(=O)[C@@H]2CCCCCCC(=O)OC)C1` (stereo partly drawn) [TR-4694, Methyl 15R-hydroxy-16,18-methano-16-methyl-9-oxoprosta-10,13E-dien-1-oate], in the test with rat uterus (setting [2]), the EC50 was more than 10 µg/mL.

With `O=C1C[C@@H](O)[C@H](/C=C/[C@@H](O)C2CC(CC3CCC3)C2)[C@H]1CCCCCCCO` (stereo partly drawn) [TR-4833, 1,11α,15S-Trihydroxy-16,18-methano-20,20-propanoprost-13E-en-9-one], in the test with rat uterus (setting [2]), the EC50 is more than 10 µg/mL.

For `O=C1C[C@@H](O)[C@H](/C=C/[C@H](O)C2CC(C3CCC3)C2)[C@H]1CCCCCCCO` (stereo partly drawn) [TR-4881, 1,11α,15R-Trihydroxy-16,18-methano-19,20-ethanoprost-13E-en-9-one], the EC50 in the test on rat uterus (setting [2]) was more than 10 µg/mL.

As to `CCC1CC([C@H](O)/C=C/C2C(O)CC(O)C2CCCCCCCO)C1` (stereo partly drawn) [TR-4626, 16,18-Methanoprost-13E-en-1,9α,11α,15S-tetraol], the “Activity value, Test F: Effects on Rat Uterus (ED50, response of 50% that of carbachol)” value in the test with rat uterus (setting [2]) was 0 (>10).

For `COC(=O)CCCCCC[C@H]1C(=O)C[C@@H](O)[C@@H]1/C=C/[C@@H](O)C1CC(C2CCC2)C1` (stereo partly drawn) [TR-4887, Methyl 11α,15S-dihydroxy-16,18-methano-19,20-ethano-9-oxoprost-13E-en-1-oate], in the test with rat uterus (setting [2]), the EC50 was more than 10 µg/mL.

Regarding `COC(=O)CCCCCC[C@H]1C(=O)C[C@@H](O)[C@@H]1/C=C/[C@H](O)C1CC(C2CCC2)C1` (stereo partly drawn) [TR-4882, Methyl 11α,15R-dihydroxy-16,18-methano-19,20-ethano-9-oxoprost-13E-en-1-oate], the EC50 in the test with rat uterus (setting [2]) is more than 10 µg/mL.
